Laboratory results: ChEMBL document CHEMBL1201862, “PubChem BioAssay data set” (2004)
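In this assay, cells in 96-well plates receive the compound at five concentrations for 48 hours. Endpoints are linearly interpolated between the surrounding concentrations. Here, GI50 denotes the concentration required for 50% inhibition of growth.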 The source made the active and inactive calls. Cut-off read from the data, not from the text of the source: active = GI50 up to about 1.1 µM and inactive = higher.

Legend:
Assay in all cases: DTP human tumour cell line panel, 48 h
BT-549 = tested on: BT-549
HCT-15 = tested on: HCT-15
HOP-92 = tested on: HOP-92
HT-29 = tested on: HT-29
MDA-MB-231 = tested on: MDA-MB-231
MOLT-4 = tested on: MOLT-4
NCI-H23 = tested on: NCI-H23
OVCAR-3 = tested on: OVCAR-3
OVCAR-4 = tested on: OVCAR-4
PC-3 = tested on: PC-3
SF-268 = tested on: SF-268
SF-295 = tested on: SF-295
SK-OV-3 = tested on: SK-OV-3
SNB-19 = tested on: SNB-19
SNB-75 = tested on: SNB-75
SR = tested on: SR
SW-620 = tested on: SW-620
TK-10 = tested on: TK-10
U-251 = tested on: U-251
NCI-H522 = tested on: NCI-H522

Structure (SMILES)	GI50 (BT-549)	GI50 (HCT-15) [µM]	GI50 (HOP-92)	GI50 (HT-29)	GI50 (MDA-MB-231)	GI50 (MOLT-4)	GI50 (NCI-H23)	GI50 (OVCAR-3)	GI50 (OVCAR-4)	GI50 (PC-3)	GI50 (SF-268)	GI50 (SF-295)	GI50 (SK-OV-3)	GI50 (SNB-19)	GI50 (SNB-75)	GI50 (SR)	GI50 (SW-620)	GI50 (TK-10)	GI50 (U-251)	GI50 (NCI-H522)
O=S(=O)(c1ccccc1)C1(CCC2OCCO2)C=CC2(CC1)OCCO2 (stereo not drawn)	> 100 µM (inactive)	> 100	> 100 µM (inactive)	> 100 µM (inactive)	> 100 µM (inactive)	> 100 µM (inactive)	> 100 µM (inactive)	> 100 µM (inactive)	> 100 µM (inactive)	> 10 µM (inactive)	> 100 µM (inactive)	> 100 µM (inactive)	> 100 µM (inactive)	> 100 µM (inactive)	> 100 µM (inactive)	> 100 µM (inactive)	> 100 µM (inactive)	> 100 µM (inactive)	> 100 µM (inactive)	–
CC(CCOc1c2ccoc2cc2oc(=O)ccc12)C1=CC(=O)C(C)(C)O1 (stereo not drawn)	71 µM (inactive)	> 100	> 100 µM (inactive)	> 100 µM (inactive)	> 100 µM (inactive)	> 100 µM (inactive)	> 100 µM (inactive)	> 100 µM (inactive)	42 µM (inactive)	> 100 µM (inactive)	> 100 µM (inactive)	> 100 µM (inactive)	> 100 µM (inactive)	> 100 µM (inactive)	–	> 100 µM (inactive)	> 100 µM (inactive)	> 100 µM (inactive)	> 100 µM (inactive)	13.9 µM (inactive)
COc1ccc(-n2c3c(c4cc(O)ccc42)C(=O)c2ccccc2C3=O)cc1	11.2 µM (inactive)	> 100	16.9 µM (inactive)	3.94 µM (inactive)	2 µM (inactive)	7.66 µM (inactive)	8.97 µM (inactive)	8.38 µM (inactive)	17.4 µM (inactive)	5.32 µM (inactive)	2.14 µM (inactive)	2.86 µM (inactive)	0.404 µM (active)	6.65 µM (inactive)	–	10.4 µM (inactive)	> 100 µM (inactive)	8.55 µM (inactive)	0.931 µM (active)	16.6 µM (inactive)
Clc1cccc(Cl)c1C1SCC2=Nc3ccccc3CN21 (stereo not drawn)	66.4 µM (inactive)	32	40.7 µM (inactive)	–	42.9 µM (inactive)	31.3 µM (inactive)	14.6 µM (inactive)	15 µM (inactive)	80.4 µM (inactive)	18.7 µM (inactive)	39.9 µM (inactive)	13.2 µM (inactive)	20.6 µM (inactive)	5.18 µM (inactive)	38.3 µM (inactive)	34.1 µM (inactive)	33.3 µM (inactive)	> 100 µM (inactive)	33.2 µM (inactive)	–
COc1ncc(/C=C2\OC(=O)c3ccccc32)c(OC)n1	0.402 µM (active)	65.2	47.5 µM (inactive)	64.6 µM (inactive)	> 100 µM (inactive)	41 µM (inactive)	> 100 µM (inactive)	24.9 µM (inactive)	–	39 µM (inactive)	32.6 µM (inactive)	4.19 µM (inactive)	–	26.5 µM (inactive)	6.44 µM (inactive)	30.1 µM (inactive)	> 100 µM (inactive)	16.2 µM (inactive)	13.6 µM (inactive)	26.1 µM (inactive)
